{
  "source": "patent US20180353524A1",
  "about": "“CANCER TREATMENT USING 2-DEOXY-2-FLUORO-L-FUCOSE IN COMBINATION WITH A CHECKPOINT INHIBITOR” (SEATTLE GENETICS, INC., priority 2015, published 2018)",
  "key": {"dendritic cells": {"system": "dendritic cells", "test": "DC markers in co-cultures of T-cells and DCs (FACS)", "assay_type": "cell-based, human", "description": "T-cells were isolated from 10 mL of whole blood which was centrifuged first at 1200 rpm (300×g) for 10 min (without brakes). The top layer containing platelets was removed carefully without disrupting the white blood cell layer. Then RosetteSep™ Human T-Cell Enrichment Cocktail (Pan T-cells from StemCell technologies, Vancouver, BC) was added to the remaining blood (500 μL/10 mL blood). This was incubated for 20 min and then 1 mL FBS was added along with 10 mL PBS. Histopaque (20-25 mL) placed in a 50 mL Falcon the prepared blood/PBS solution was overlaid very slowly. This was centrifuged with no brake (25° C., 1500 rpm, 25 min). The top layer was removed and the T-cells in the buffy coat layer were then removed to a new 50 mL tube. The T-cells were washed with PBS, resuspended in 1 mL ACK lysis buffer and topped up to 25 mL, incubated for 5 min, brought up to 50 mL with PBS, and then pelleted. This red blood cell lysis step was repeated a second time.\nPBMCs were isolated similarly to the T-cells, except that 90 mL of blood were used and after the removal of platelets the RosetteSep™ Human T-Cell Enrichment Cocktail was not added, instead an equal volume of PBS (90 mL) was added before overlaying on Histopaque. Centrifugation over Histopaque as above results in PBMC-containing buffy coat.\nDCs (20000-30000/well) and 10 times as many T-cells were plated in each well in a total of 200 μL/well in DC medium. Co-cultures were incubated 24 h after which cells evaluated for DC maturation markers as described below.\nTranswell assays were performed in 24-well plates. Co-cultures were plated out as described above with the final volume per well of 500 μL. For the transwell samples DCs were plated in the well and T-cells placed into the insert. The cells were then incubated 24 h and examined in the same manner as co-cultures without transwells.\nDCs were grown as described until day 8 when there were split into two flasks, one with normal media and the other in serum free media. While no serum was present, X-VIVO™ 15 media contains growth factors which help maintain the health of the cultures. The co-culture experiment was performed as above in 48-well plates.\nCo-cultures were examined using FACS analysis. After incubation, cells were washed in BD stain buffer (BSA) with Human Fc block (EMD Millipore) and incubated on ice for 30 min. Cells were then stained with fluorescently labeled anti-MHCII, anti-CD86, anti-CD83, and anti-CD40 primary antibodies (BD, 1:100 or 1:50 in BD stain buffer (BSA)) or with appropriate isotype controls (ice, dark, 40 min). Cells were then washed twice in BD stain buffer (BSA) and analyzed on an LSRII flow cytometer."}, "4T1 cells": {"system": "4T1 cells", "test": "4T1 mouse tumor study, tumor infiltrating immune cells", "assay_type": "in vivo, balb/c mice", "conditions": "4T1 tumors, 20 mM in drinking water", "description": "To evaluate the effect of 2FF treatment on tumor infiltrating immune cells balb/c mice were implanted with 4T1 cells (2×10^4 injected sc.) and on the same day started on 20 mM 2FF drinking water. On day 19 (when tumors were approximately ˜250-300 mm^3) or day 28 (when tumors were ˜800-1000 mm^3) tumors were removed, finely minced with a razor blade and suspend in 5 mL cold disassociation buffer (DMEM (high glucose) media, 5% FBS, 1 M HEPES, 2 mg/mL collagenase D (Roche), 0.1 mg/mL DNAse I (50 mg/mL stock in 20 mM Tris-HCL (ph7.5), 1 mM MgCl2, 50% glycerol) and transferred to a Miltenyi C-tube. GentleMACS was run on each tube and the tubes incubated at 37° C. for 40 minutes with continuous rotation. GentleMACS was then run twice and the tubes quickly spun down to collect the tumor in the bottom of the tube. The tube contents was then passed through a 70 μm mesh filter into a 50 mL falcon tube using the rubber stopper of a syringe to gently dissociate the tissue. The filter was washed with 5 mL of cold enzyme inhibitor buffer (DMEM (high glucose), 0.25 M EDTA) and the tube spun down, supernatant discarded and the samples re-suspend in PBS. Cells were then stained with eFluor®506 viability dye (eBioscience) following the manufactures instructions. Cells were washed twice in FACS staining buffer (0.5% FBS, 0.05% NaN3) and immune phenotyped with three different panels of antibodies, each containing an antibody against CD45 to identify immune cells. The cells phenotyped for dendritic cell antigens were stained with the desired antiboides for 30 minutes in the dark on ice, washed twice in staining buffer and resuspended in 1:4 PBS:fixation buffer (Biolgend) and stored at 4° C. overnight. The following day cells were washed in FACS stain buffer and analyzed on the LSRII flow cytometer. The cells phenotyped for T regulatory cells were first stained with the desired antibodies against cell surface antigens for 30 minutes in the dark on ice. […]"}, "SMAD2": {"system": "SMAD2", "test": "TGFβ signaling, pSMAD2 western blot in T-cells", "assay_type": "cell-based, human", "conditions": "TGFβ 5 ng/mL for 10 min after 6 h serum starvation", "description": "Cells were plated in 6-well dishes (2.5×10^6 cells/well) with serum-free RPMI medium (1% PS, 2.5 mL) and after 6 h of serum starvation, cells were stimulated with TGFβ (5 ng/mL) for 10 min. The cells were harvested, washed twice in PBS, and snap frozen on dry ice followed by storage at −80 ° C. Cells were lysed with RIPA buffer (containing DNAse and protease/phosphatase inhibitors). As described previously, cell lysates were run on SDS-PAGE and examined by western blot on nitrocellulose membranes with anti-pSMAD2 and anti-actin antibodies."}, "[1]": {"system": "T-cells (TCR binding of antigen specific tetramers)", "test": "Tetramer staining of T-cells", "assay_type": "cell-based, human", "conditions": "T-cells expanded with 100 μM"}, "Galectin-3": {"system": "Galectin-3", "test": "Activated T-cell expression of Galectin-3 (FACS)", "assay_type": "cell-based, human", "conditions": "CD3/CD28 activated T-cells, overnight", "description": "Purified T-cells were plated in 12-well plates (10^6 cells/well, 1-2 mL T-cell medium) and were activated with CD3/CD28 beads (4 μL beads/2 mL media, Miltenyi Biotec). Cells were incubated at 37° C. overnight and were then analyzed for Galectin-3 expression after fixation and permeabilization followed by FACS analysis."}},
  "data": [
    {"molecule": "C[C@@H]1OC(O)[C@@H](F)[C@H](O)[C@@H]1O", "note": "(stereo partly drawn) [2-deoxy-2-fluoro-L-fucose]", "values": [
      {"measurement": "DC activation and maturation markers, DCs alone", "setting": "dendritic cells; DCs alone, with or without treatment", "value": "do not show changes in these markers"},
      {"measurement": "DC activation and maturation markers MHCII, CD86, CD83 and CD40 (MFI vs control co-culture)", "setting": "dendritic cells; DCs co-cultured 24 h with autologous T-cells expanded with 100-200 μM, serum-containing medium", "value": "increases in the DC activation and maturation markers MHCII, CD86, CD83 and CD40"},
      {"measurement": "DC activation and maturation markers, transwell co-culture", "setting": "dendritic cells; T-cells and DCs separated by transwell inserts", "value": "do not occur when transwell inserts are used"},
      {"measurement": "DC activation and maturation markers, serum-free co-culture", "setting": "dendritic cells; serum-free medium (no antigen)", "value": "does not provide the same increases"},
      {"measurement": "T regulatory cells in tumor", "setting": "4T1 cells; day 19 after implantation", "value": "significantly decreased T regulatory cells"},
      {"measurement": "dendritic cells in tumor", "setting": "4T1 cells; day 19 after implantation", "value": "increased dendritic cells which are more activated"},
      {"measurement": "memory and effector T cells in tumor", "setting": "4T1 cells; day 28 after implantation", "value": "increased memory and effector T cells"},
      {"measurement": "SMAD2 phosphorylation following TGFβ stimulation vs control T-cells", "setting": "SMAD2", "value": "reduced SMAD2 phosphorylation"},
      {"measurement": "EBV-specific tetramer binding to treated T-cells vs control cells (flow cytometry)", "setting": "[1]", "value": "increase in EBV-specific tetramer binding"},
      {"measurement": "tetramer binding with other antigens (flu, CMV) to treated T-cells vs control cells", "setting": "[1]", "value": "slight increases"},
      {"measurement": "galectin-3 levels in T-cells", "setting": "Galectin-3", "value": "reduction in galectin-3 levels"}
    ]}
  ]
}
